According to PMC11241262, “Unravelling the Antifibrinolytic Mechanism of Action of the 1,2,3-Triazole Derivatives” (International Journal of Molecular Sciences, 2024):

Tests used:
plasmin = target: T1, plasmin (Homo sapiens, UniProt P00747); assay: Plasmin activity assay (Plasmin Inhibitor Screening Assay Kit); format: biochemical
T1 construct: purchased abcam
Experimental: The potential activity of the studied compounds on the catalytic domain of plasmin was evaluated using the Plasmin Inhibitor Screening Assay Kit (abcam), following the manufacturer’s instructions. Briefly, the assay measures the inhibition of plasmin’s activity by the tested compounds through the cleavage of a fluorogenic peptide substrate. The assay was performed in flat-bottom 96-well plates. Plasmin was pre-incubated with different concentrations of the tested compounds for 10 min at RT prior to the addition of the peptide substrate. Plasmin’s activity was then measured by monitoring the increase in fluorescence intensity over time using a microplate reader (Infinite M Plex, Tecan, Männedorf, Switzerland) at an Ex/Em of 360/450 nm, every minute at 37 °C for 10 min. The slope of each sample was determined using the initial and final fluorescence values and their respective time points. (1) Fluorescence slope=RFU2−RFU1/t2−t1
The Relative Plasmin Inhibition was calculated according to the manufacturer’s instructions using a control slope with no compound (enzyme control):(2) Relative Plasmin Inhibition%=SlopeControl−SlopeCompound/SlopeControl×100

whole blood clots = assay: Whole blood dosage (effective antifibrinolytic dosage, tPA-triggered clot lysis); set-up: species or system human; conditions: 10 µg/mL tPA, 37 °C
Experimental: Blood was obtained by venipuncture from healthy donors after they signed an informed consent form. Blood was transferred into vacuum non-anticoagulant Vacutainer® tubes (BD, Franklin Lakes, NJ, USA). Blood samples were immediately used for the assay after extraction.
Glass tubes were prepared with 20 µL of a mixture of tPA, in a final concentration of 10 µg/mL, and the evaluated compounds, in a final concentration of 10, 20, 40, or 60 µM in Tris HCl buffer. A control clot was obtained with 20 µL of tPA with no compound. Then, 800 µL of blood was transferred to each tube and tubes were monitored for clot formation and lysis. The assay was performed with casual shaking. […] The ex vivo effective dosage for each compound was determined by their ability to inhibit complete clot degradation. Photographs were taken after 24 h of incubation.

in vivo = conditions: dog
Experimental: In the case of dogs, one male and one female Beagle dog were selected for the study. A period of 5 days was used to allow dogs to acclimatize, and at the start of dosing, they were between 5 and 6 months old. Dogs were housed individually per sex in an environmentally controlled room, maintained at 24 ± 2 °C and 71.5 ± 4.5% relative humidity, on a 12–12 h light–dark cycle (beginning at 06:00 h) with 17 or 22 air changes per hour. Dogs were provided with 300 g feed every day and with water ad libitum.
Compound 5 was administered via an intravenous bolus injection through the cephalic vein of the forelimb, using a sterile needle attached to a graduated syringe. An initial dose level of 50 mg/kg b. wt. […] Following a washout period of 7 days, a dose of 75 mg/kg b. wt. […] A constant volume of 1 mL/kg b. wt. was used, with individual doses adjusted to the most recent recorded body weight of each animal. Dogs were observed twice daily for clinical, mortality, and morbidity signs throughout the study period of 7 days. Body weight was recorded on dosing day and every two days during the assay period. Additionally, a daily record of individual dog feed intake and leftover feed was maintained. Blood samples were obtained prior to dosing and on day 7. Blood was extracted either from the cephalic vein in the forelimb or the lateral saphenous vein in the hind limb. Around 2.0 mL of blood was collected in non-heparin centrifuge tubes for serum separation to conduct clinical chemistry estimations. An additional 0.5 mL of blood was collected in EDTA-containing vials for hematology analysis and another 0.5 mL of blood was collected in tubes containing a 3.2% sodium citrate solution for Prothrombin time determination. Dogs were fasted overnight, with only water allowed prior to blood collection. Hematology and clinical chemistry determinations are available upon request. Dogs were euthanized by an intravenous injection of barbiturate (thiopentone sodium 100 mg/kg b. wt.). Then, a comprehensive gross necropsy was performed. Dogs were first examined for external abnormalities. The cranial, thoracic, and abdominal cavities were then dissected, and a thorough examination of the organs was conducted. Specifically, the liver, testes, uterus, brain, and kidneys were collected and subjected to microscopic examination using paraffin-embedded tissue stained with hematoxylin-eosin.

T1 sequence (P00747 97-580 limits assumed): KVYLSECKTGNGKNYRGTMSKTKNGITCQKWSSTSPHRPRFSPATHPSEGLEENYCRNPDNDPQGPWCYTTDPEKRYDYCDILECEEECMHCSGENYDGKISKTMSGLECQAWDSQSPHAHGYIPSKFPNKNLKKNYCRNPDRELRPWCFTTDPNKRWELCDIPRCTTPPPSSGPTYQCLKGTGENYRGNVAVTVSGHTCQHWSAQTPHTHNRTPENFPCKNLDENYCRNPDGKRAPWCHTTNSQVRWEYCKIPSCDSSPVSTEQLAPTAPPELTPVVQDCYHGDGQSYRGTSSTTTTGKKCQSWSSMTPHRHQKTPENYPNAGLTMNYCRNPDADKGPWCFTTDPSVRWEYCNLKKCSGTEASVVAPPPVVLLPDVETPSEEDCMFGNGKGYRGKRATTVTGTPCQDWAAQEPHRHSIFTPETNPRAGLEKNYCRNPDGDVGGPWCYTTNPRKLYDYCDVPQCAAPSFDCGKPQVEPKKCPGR
T1 sequence (P00747 581-810 limits assumed): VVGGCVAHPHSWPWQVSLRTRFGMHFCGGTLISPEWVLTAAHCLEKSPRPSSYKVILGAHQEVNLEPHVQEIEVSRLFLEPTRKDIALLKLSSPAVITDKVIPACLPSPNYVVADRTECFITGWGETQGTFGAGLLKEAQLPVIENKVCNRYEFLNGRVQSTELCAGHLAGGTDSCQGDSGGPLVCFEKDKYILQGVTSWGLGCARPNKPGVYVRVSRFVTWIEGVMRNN

Compound `O=c1[nH]nc(-c2cn(C3CCNCC3)nn2)o1` [compound 5] has an inhibition at 5000 µM (plasmin; 5 mM, read-out: percentage of plasmin's inhibition) of 6.29%, an inhibition at 10000 µM (plasmin; 10 mM, read-out: percentage of plasmin's inhibition) of 23.9% and an inhibition at 15000 µM (plasmin; 15 mM, read-out: percentage of plasmin's inhibition) of 31.3%. The inhibition at 20000 µM (plasmin; 20 mM, read-out: percentage of plasmin's inhibition) was 65.3%, the IC50 (plasmin; inhibition of plasmin's cleavage of a synthetic substrate by 50%) was 17.9 ± 1.24 mM and the “increase of IC50 of plasmin's catalytic domain compared to IC50 in plasma clot lysis assay” value (plasmin; plasma clot lysis IC50 from Bosch-Sanz et al. [43]) was 1000 fold. For the same compound, the “effective dosage (concentration preventing complete clot degradation after 24 h)” value (whole blood clots) was 10 µM, the MTD at 7 days (in vivo; both, Beagle, iv) was 75 mg/kg and the “Microscopic Findings, kidneys” value (in vivo) was “Kidneys (bilateral): min ima l infiltration”. The “Microscopic Findings, testes” value (in vivo) was “Testes (bilateral): immature – present”, the “hematology and clinical chemistry parameters” value (in vivo) was “did not show any alteration” and the “terminal body and organ weight” value (in vivo) was “no treatment-related alterations”.
